Measurements reported in PubChem BioAssay (NCI).
Values joined by “and” are separate entries in the source; they are usually repeats but may differ in a detail not shown here. Equal entries are not always repeated.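 Test compounds were applied to cells in 96-well plates for 48 hours at 5 doses. The concentration for 50% growth inhibition is given as GI50. TGI marks complete inhibition of growth.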

Tests used:
Assay in all cases: NCI-60 cell line screen, 48 h
[1] = tested on: 786-0 renal
[2] = tested on: HCC-2998 colon
[3] = tested on: HOP-92 NSCLC
[4] = tested on: OVCAR-4 ovarian
[5] = tested on: RPMI-8226 leukemia
[6] = tested on: SK-MEL-2 melanoma
[7] = tested on: SK-MEL-5 melanoma
[8] = tested on: SN12C renal
[9] = tested on: PC-3 prostate
[10] = tested on: MDA-MB-435

Structure (SMILES)	TGI [1] [µM]	TGI [2] [µM]	TGI [3] [µM]	TGI [4] [µM]	TGI [5] [µM]	TGI [6]	TGI [7]	TGI [8] [µM]	GI50 [1] [µM]	GI50 [2] [µM]	GI50 [4] [µM]	GI50 [9] [µM]	TGI [9] [µM]	GI50 [5]	GI50 [6] [µM]	GI50 [7] [µM]	GI50 [8] [µM]	GI50 [3] [µM]	GI50 [10] [µM]	TGI [10] [µM]
CCCCCCCCCC(=O)OCC1OC(n2cc(F)c(=O)[nH]c2=O)C(N)C(OC(=O)CCCCCCCCC)C1O (configuration not stated)	32.9	33.3	37	31	48.4	29.6 µM	37.4 µM	32.2												
Clc1ccc2nc(CCSCCc3nc4ccc(Cl)cc4[nH]3)[nH]c2c1	26.3	31.7	30.6	28.5	13.5	28.8 µM	18.4 µM	30.3												
O=C(O)/C(Cl)=C(\Cl)C(=O)Nc1ccccc1	> 100	> 100	> 100	> 100	> 100	> 100 µM	> 100 µM	> 100												
Nc1nc(N)c(-c2ccc(Cl)cc2)c(CCC(=O)Nc2cccc(C(F)(F)F)c2)n1	> 100	> 100		> 100		> 100 µM	> 100 µM	> 100												
COc1ccc2c(c1)[n+]([O-])c(-c1nc3ccccc3s1)c(N)[n+]2[O-]	> 100		> 100	> 100	> 100	> 100 µM	> 100 µM	> 100												
CC12CC3CC(C)(C1)CC(N=[N+]=[N-])(C3)C2	> 100	> 100	> 100	> 100	> 100	> 100 µM	> 100 µM	> 100												
COC(=O)C1C(=O)O[C@@H](c2ccc(OC)cc2OC)C1C(=O)OC (some centres not stated)	> 100	> 100	> 100	> 100	> 100		> 100 µM	> 100												
CN=S(=O)(C[C@]1(O)CC2OC1C1OC(C)(C)OC21)c1ccccc1 (some centres not stated)	> 100	> 100	> 100	> 100	> 100	> 100 µM	> 100 µM	> 100												
CCN(CC)c1ccc2c(c1)N=C1N=CC=CN1C2(c1ccc(N(C)C)cc1)c1ccc(N(C)C)cc1	24.1	13.2	8.6		8.1	31.1 µM	26.7 µM	19.3												
O=C(C=Nc1ccccc1C(=O)[O-])c1cccs1.O=C(C=Nc1ccccc1C(=O)[O-])c1cccs1.[Cu+2]	> 100	> 100	> 100			> 100 µM		> 100												
CCCCCCCCCCCC(=O)OCC1OC(n2cc(F)c(=O)[nH]c2=O)C(N)C(O)C1O (configuration not stated)	> 100	> 100	> 100	> 100	> 100	> 100 µM	> 100 µM	> 100												
O=C(CC(=O)C(F)(F)F)c1csc2ccccc12	> 100	> 100			91.6	53.7 µM	> 100 µM	75.4												
C/C(=C\c1ccn(-c2ccc(N)cc2)n1)[C@@H]1C[C@@H]2O[C@]2(C)CCC[C@H](C)[C@H](O)[C@@H](C)C(=O)C(C)(C)[C@@H](O)CC(=O)O1	> 50	> 50	> 50	> 50	> 50	> 50 µM	> 50 µM	> 50	0.174	0.0382	0.401	0.0313	> 50	0.0214 µM	0.0758	0.0308	0.201			
COC(=O)C1=CC2OC13CC1CCC3(C2=O)C1(C)C (configuration not stated)	30.7	27.8		23.3	38.6	28.7 µM	30.7 µM	26.4												
CCC[CH2][Sn]([CH2]CCC)([S]C1=NCCS1)[S]C1=NCCS1	0.663	1.94	0.529	2.24	0.461	0.566 µM	1.76 µM	1.82	0.22	0.654	0.964			0.101 µM	0.194	0.452	0.502	0.227		
Nc1ccn([C@@H]2C=C(CO)[C@@H](O)[C@H]2O)c(=O)n1	500					346 µM and 301 µM	406 µM and 379 µM		0.257				500	0.0128 µM and 0.0635 µM and 0.126 µM					0.0377	500
Cc1cc(C)n(-c2c(O)ccc(O)c2-n2nc(C)cc2C)n1	> 100	> 100	> 100	> 100	> 100	> 100 µM	> 100 µM	> 100												
